Measurements published in US20080274892A1, “Novel Haloalkylsulfonanilide Derivative, Herbicide, and Method of Use Thereof” (priority 2005, published 2008).

What was measured:
bulrush [1] = assay: Test Example 1: herbicidal efficacy on rice paddy weeds pre-emergence; format: in vivo, Scirpus juncoides; settings: dosage 1000 g/ha, 21 days
false pimpernel [2] = assay: as above; format: in vivo, Lindernia pyxidaria; settings: dosage 1000 g/ha, 21 days
barnyard glass = assay: Test Example 2: herbicidal efficacy on rice paddy weeds post-emergence; format: in vivo, Echinochloa crus-galli; settings: dosage 1000 g/ha; post-emergence, one leaf stage; 21 days after treatment
Summary of the method: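 Efficacy on paddy weeds was scored on a 0 to 4 growth-inhibition scale: 4 for 90%-100%, 3 for 70%-89%, 2 for 40%-69%, 1 for 1%-39% and 0 for 0%. Barnyard glass was grown in clay loam in 75 cm^2 pots under 5 cm of water in a hot house. It was compared with untreated pots 21 days after treatment.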

bulrush [3] = assay: as above; format: in vivo, Scirpus juncoides; settings: dosage 1000 g/ha; post-emergence, one leaf stage; 21 days after treatment
false pimpernel [4] = assay: as above; format: in vivo, Lindernia pyxidaria; settings: dosage 1000 g/ha; post-emergence, one leaf stage; 21 days after treatment
[5] = system: paddy rice plant (cultivar: Nihonbare); assay: Test Example 3: phytotoxicity test for transplanted paddy rice plant; format: in vivo; settings: dosage 1000 g/ha; transplanted rice, treated 5 days after transplantation; 21 days after treatment
Summary of the method: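 Clay loam soil was placed in a 75 cm^2 plastic pot and flooded to a water depth of 5 cm. Two Nihonbare paddy rice plants at the two-leaf stage were transplanted 1 cm deep and grown in a hot house. After treatment, pots stayed in the hot house for 21 days, and phytotoxicity was then graded against an untreated control.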

bulrush [6] = assay: Test Example 4: low dosage test for rice paddy weeds; format: in vivo, Scirpus juncoides; settings: 300 g/ha as an active ingredient; plants treated at the one leaf stage; 21 days after treatment; vs untreated control
Summary of the method: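 Compound applied as a formulation at 300 g/ha to one-leaf bulrush grown in flooded clay loam (5 cm water) in a hot house. After 21 days, growth inhibition versus untreated plants rated on a 0–4 scale, with 4 meaning 90–100%.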

[7] = system: transplanted paddy rice plant and Bulrush; assay: Test Example 5: selectivity between transplanted paddy rice plant and weeds; format: in vivo; settings: (highest dosage with no phytotoxicity to paddy rice)/(lowest dosage with effective level 4 on Bulrush); rice 3000-100 g/ha, Bulrush 300-10 g/ha; 21 days
Summary of the method: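 Scoring ran 21 days after treatment in a hothouse on a 0–4 scale (4 = 90–100%, 3 = 70–89%, 2 = 40–69%, 1 = 1–39%, 0 = none) relative to untreated plants. Post-emergence bulrush received 10, 30, 100 and 300 g/ha active ingredient. Transplanted rice received 100, 300, 1000 and 3000 g/ha to assess crop injury.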

Compound: CCC1(C)CN(Cc2ccccc2N(C(=O)OCC(C)C)S(=O)(=O)C(F)(F)F)C(=O)O1 (racemic) [1-60]
- Bulrush pre (herbicidal efficacy grade) (bulrush [1]): 4 (90%-100% of herbicidal efficacy or phytotoxicity)
- False pimpernel pre (herbicidal efficacy grade) (false pimpernel [2]): 4 (90%-100% of herbicidal efficacy or phytotoxicity)
- Burnyard grass post (herbicidal efficacy grade) (barnyard glass): 4 (90%-100% of herbicidal efficacy or phytotoxicity)
- Bulrush post (herbicidal efficacy grade) (bulrush [3]): 4 (90%-100% of herbicidal efficacy or phytotoxicity)
- False pimpernel post (herbicidal efficacy grade) (false pimpernel [4]): 4 (90%-100% of herbicidal efficacy or phytotoxicity)
- Phytotoxicity to paddy rice [5]: 3 (70%-89% of herbicidal efficacy or phytotoxicity)
- Herbicide effect to Bulrush (bulrush [6]): 4 (90%-100% of herbicidal efficacy or phytotoxicity)
- Selective Index [7]: ≧30

Compound: CC(C)COC(=O)N(c1ccccc1CN1CC(C)OC1=S)S(=O)(=O)C(F)(F)F (stereo not drawn) [Compound No. 1-22, 5-methyl-3-{2-[N-(isobutoxycarbonyl)-N-(trifluoromethanesulfonyl)amino]benzyl}-2-oxazolidinethione]
- Bulrush pre (herbicidal efficacy grade) (bulrush [1]): 4 (90%-100% of herbicidal efficacy or phytotoxicity)
- False pimpernel pre (herbicidal efficacy grade) (false pimpernel [2]): 4 (90%-100% of herbicidal efficacy or phytotoxicity)
- Burnyard grass post (herbicidal efficacy grade) (barnyard glass): 4 (90%-100% of herbicidal efficacy or phytotoxicity)
- Bulrush post (herbicidal efficacy grade) (bulrush [3]): 4 (90%-100% of herbicidal efficacy or phytotoxicity)
- False pimpernel post (herbicidal efficacy grade) (false pimpernel [4]): 4 (90%-100% of herbicidal efficacy or phytotoxicity)
- Phytotoxicity to paddy rice [5]: 0 (0% of herbicidal efficacy or phytotoxicity)
- Herbicide effect to Bulrush (bulrush [6]): 4 (90%-100% of herbicidal efficacy or phytotoxicity)
- Selective Index [7]: 33

Compound: CC(C)COC(=O)N(c1ccccc1CN1CC(C)OC1=O)S(=O)(=O)C(F)(F)F (stereo not drawn) [Compound No. 1-18]
- Bulrush pre (herbicidal efficacy grade) (bulrush [1]): 4 (90%-100% of herbicidal efficacy or phytotoxicity)
- False pimpernel pre (herbicidal efficacy grade) (false pimpernel [2]): 4 (90%-100% of herbicidal efficacy or phytotoxicity)
- Burnyard grass post (herbicidal efficacy grade) (barnyard glass): 4 (90%-100% of herbicidal efficacy or phytotoxicity)
- Bulrush post (herbicidal efficacy grade) (bulrush [3]): 4 (90%-100% of herbicidal efficacy or phytotoxicity)
- False pimpernel post (herbicidal efficacy grade) (false pimpernel [4]): 4 (90%-100% of herbicidal efficacy or phytotoxicity)
- Phytotoxicity to paddy rice [5]: 0 (0% of herbicidal efficacy or phytotoxicity)
- Herbicide effect to Bulrush (bulrush [6]): 4 (90%-100% of herbicidal efficacy or phytotoxicity)
- Selective Index [7]: 33

Compound: COC(=O)N(c1ccccc1CN1CC(C)(C(C)C)OC1=O)S(=O)(=O)C(F)(F)F (racemic) [1-114]
- Bulrush pre (herbicidal efficacy grade) (bulrush [1]): 4 (90%-100% of herbicidal efficacy or phytotoxicity)
- False pimpernel pre (herbicidal efficacy grade) (false pimpernel [2]): 4 (90%-100% of herbicidal efficacy or phytotoxicity)
- Burnyard grass post (herbicidal efficacy grade) (barnyard glass): 4 (90%-100% of herbicidal efficacy or phytotoxicity)
- Bulrush post (herbicidal efficacy grade) (bulrush [3]): 4 (90%-100% of herbicidal efficacy or phytotoxicity)
- False pimpernel post (herbicidal efficacy grade) (false pimpernel [4]): 4 (90%-100% of herbicidal efficacy or phytotoxicity)
- Phytotoxicity to paddy rice [5]: 2 (40%-69% of herbicidal efficacy or phytotoxicity)
- Herbicide effect to Bulrush (bulrush [6]): 4 (90%-100% of herbicidal efficacy or phytotoxicity)
- Selective Index [7]: 30

Compound: CCC1(C(C)C)CN(Cc2ccccc2N(C(=O)OCC(C)C)S(=O)(=O)C(F)(F)F)C(=O)O1 (stereo not drawn) [1-133]
- Bulrush pre (herbicidal efficacy grade) (bulrush [1]): 4 (90%-100% of herbicidal efficacy or phytotoxicity)
- False pimpernel pre (herbicidal efficacy grade) (false pimpernel [2]): 4 (90%-100% of herbicidal efficacy or phytotoxicity)
- Burnyard grass post (herbicidal efficacy grade) (barnyard glass): 4 (90%-100% of herbicidal efficacy or phytotoxicity)
- Bulrush post (herbicidal efficacy grade) (bulrush [3]): 4 (90%-100% of herbicidal efficacy or phytotoxicity)
- False pimpernel post (herbicidal efficacy grade) (false pimpernel [4]): 4 (90%-100% of herbicidal efficacy or phytotoxicity)
- Phytotoxicity to paddy rice [5]: 1 (1%-39% of herbicidal efficacy or phytotoxicity)
- Herbicide effect to Bulrush (bulrush [6]): 4 (90%-100% of herbicidal efficacy or phytotoxicity)
- Selective Index [7]: 10

Compound: COC(=O)N(c1ccccc1CN1CC(C)(C)OC1=O)S(=O)(=O)C(F)(F)F [1-64]
- Bulrush pre (herbicidal efficacy grade) (bulrush [1]): 4 (90%-100% of herbicidal efficacy or phytotoxicity)
- False pimpernel pre (herbicidal efficacy grade) (false pimpernel [2]): 4 (90%-100% of herbicidal efficacy or phytotoxicity)
- Burnyard grass post (herbicidal efficacy grade) (barnyard glass): 4 (90%-100% of herbicidal efficacy or phytotoxicity)
- Bulrush post (herbicidal efficacy grade) (bulrush [3]): 4 (90%-100% of herbicidal efficacy or phytotoxicity)
- False pimpernel post (herbicidal efficacy grade) (false pimpernel [4]): 4 (90%-100% of herbicidal efficacy or phytotoxicity)
- Phytotoxicity to paddy rice [5]: 2 (40%-69% of herbicidal efficacy or phytotoxicity)
- Herbicide effect to Bulrush (bulrush [6]): 4 (90%-100% of herbicidal efficacy or phytotoxicity)
- Selective Index [7]: ≧30

Compound: CCCOC(=O)N(c1ccccc1CN1CC(CC)(CC)OC1=O)S(=O)(=O)C(F)(F)F [1-98]
- Bulrush pre (herbicidal efficacy grade) (bulrush [1]): 4 (90%-100% of herbicidal efficacy or phytotoxicity)
- False pimpernel pre (herbicidal efficacy grade) (false pimpernel [2]): 4 (90%-100% of herbicidal efficacy or phytotoxicity)
- Burnyard grass post (herbicidal efficacy grade) (barnyard glass): 4 (90%-100% of herbicidal efficacy or phytotoxicity)
- Bulrush post (herbicidal efficacy grade) (bulrush [3]): 4 (90%-100% of herbicidal efficacy or phytotoxicity)
- False pimpernel post (herbicidal efficacy grade) (false pimpernel [4]): 4 (90%-100% of herbicidal efficacy or phytotoxicity)
- Phytotoxicity to paddy rice [5]: 1 (1%-39% of herbicidal efficacy or phytotoxicity)
- Herbicide effect to Bulrush (bulrush [6]): 4 (90%-100% of herbicidal efficacy or phytotoxicity)
- Selective Index [7]: 10

Compound: CCC1(CC)CN(Cc2ccccc2N(C(=O)OCC(C)C)S(=O)(=O)C(F)(F)F)C(=O)O1 [1-62]
- Bulrush pre (herbicidal efficacy grade) (bulrush [1]): 4 (90%-100% of herbicidal efficacy or phytotoxicity)
- False pimpernel pre (herbicidal efficacy grade) (false pimpernel [2]): 4 (90%-100% of herbicidal efficacy or phytotoxicity)
- Burnyard grass post (herbicidal efficacy grade) (barnyard glass): 4 (90%-100% of herbicidal efficacy or phytotoxicity)
- Bulrush post (herbicidal efficacy grade) (bulrush [3]): 4 (90%-100% of herbicidal efficacy or phytotoxicity)
- False pimpernel post (herbicidal efficacy grade) (false pimpernel [4]): 4 (90%-100% of herbicidal efficacy or phytotoxicity)
- Phytotoxicity to paddy rice [5]: 1 (1%-39% of herbicidal efficacy or phytotoxicity)
- Herbicide effect to Bulrush (bulrush [6]): 4 (90%-100% of herbicidal efficacy or phytotoxicity)
- Selective Index [7]: 10

Compound: CC(C)COC(=O)N(c1ccccc1CN1CC(C)(C(F)(F)F)OC1=O)S(=O)(=O)C(F)(F)F (stereo not drawn) [1-136]
- Bulrush pre (herbicidal efficacy grade) (bulrush [1]): 4 (90%-100% of herbicidal efficacy or phytotoxicity)
- False pimpernel pre (herbicidal efficacy grade) (false pimpernel [2]): 4 (90%-100% of herbicidal efficacy or phytotoxicity)
- Burnyard grass post (herbicidal efficacy grade) (barnyard glass): 4 (90%-100% of herbicidal efficacy or phytotoxicity)
- Bulrush post (herbicidal efficacy grade) (bulrush [3]): 4 (90%-100% of herbicidal efficacy or phytotoxicity)
- False pimpernel post (herbicidal efficacy grade) (false pimpernel [4]): 4 (90%-100% of herbicidal efficacy or phytotoxicity)
- Phytotoxicity to paddy rice [5]: 1 (1%-39% of herbicidal efficacy or phytotoxicity)
- Herbicide effect to Bulrush (bulrush [6]): 4 (90%-100% of herbicidal efficacy or phytotoxicity)
- Selective Index [7]: 10

Compound: CC(C)COC(=O)N(c1ccccc1CN1CC(CCl)OC1=O)S(=O)(=O)C(F)(F)F (stereo not drawn) [1-40]
- Bulrush pre (herbicidal efficacy grade) (bulrush [1]): 4 (90%-100% of herbicidal efficacy or phytotoxicity)
- False pimpernel pre (herbicidal efficacy grade) (false pimpernel [2]): 4 (90%-100% of herbicidal efficacy or phytotoxicity)
- Burnyard grass post (herbicidal efficacy grade) (barnyard glass): 4 (90%-100% of herbicidal efficacy or phytotoxicity)
- Bulrush post (herbicidal efficacy grade) (bulrush [3]): 4 (90%-100% of herbicidal efficacy or phytotoxicity)
- False pimpernel post (herbicidal efficacy grade) (false pimpernel [4]): 4 (90%-100% of herbicidal efficacy or phytotoxicity)
- Phytotoxicity to paddy rice [5]: 0 (0% of herbicidal efficacy or phytotoxicity)
- Herbicide effect to Bulrush (bulrush [6]): 4 (90%-100% of herbicidal efficacy or phytotoxicity)
- Selective Index [7]: 100

Compound: CCCC1(C)CN(Cc2ccccc2N(C(=O)OC)S(=O)(=O)C(F)(F)F)C(=O)O1 (racemic) [1-126]
- Bulrush pre (herbicidal efficacy grade) (bulrush [1]): 4 (90%-100% of herbicidal efficacy or phytotoxicity)
- False pimpernel pre (herbicidal efficacy grade) (false pimpernel [2]): 4 (90%-100% of herbicidal efficacy or phytotoxicity)
- Burnyard grass post (herbicidal efficacy grade) (barnyard glass): 4 (90%-100% of herbicidal efficacy or phytotoxicity)
- Bulrush post (herbicidal efficacy grade) (bulrush [3]): 4 (90%-100% of herbicidal efficacy or phytotoxicity)
- False pimpernel post (herbicidal efficacy grade) (false pimpernel [4]): 4 (90%-100% of herbicidal efficacy or phytotoxicity)
- Phytotoxicity to paddy rice [5]: 2 (40%-69% of herbicidal efficacy or phytotoxicity)
- Herbicide effect to Bulrush (bulrush [6]): 4 (90%-100% of herbicidal efficacy or phytotoxicity)
- Selective Index [7]: 10

Compound: CC(C)COC(=O)N(c1ccccc1CN1C(=O)OC(C)(C)C1C)S(=O)(=O)C(F)(F)F (stereo not drawn) [1-95]
- Bulrush pre (herbicidal efficacy grade) (bulrush [1]): 4 (90%-100% of herbicidal efficacy or phytotoxicity)
- False pimpernel pre (herbicidal efficacy grade) (false pimpernel [2]): 4 (90%-100% of herbicidal efficacy or phytotoxicity)
- Burnyard grass post (herbicidal efficacy grade) (barnyard glass): 4 (90%-100% of herbicidal efficacy or phytotoxicity)
- Bulrush post (herbicidal efficacy grade) (bulrush [3]): 4 (90%-100% of herbicidal efficacy or phytotoxicity)
- False pimpernel post (herbicidal efficacy grade) (false pimpernel [4]): 4 (90%-100% of herbicidal efficacy or phytotoxicity)
- Phytotoxicity to paddy rice [5]: 3 (70%-89% of herbicidal efficacy or phytotoxicity)
- Herbicide effect to Bulrush (bulrush [6]): 4 (90%-100% of herbicidal efficacy or phytotoxicity)
- Selective Index [7]: 30
